2 molecules from ChEMBL document CHEMBL1641593, “Benzothieno[3,2-b]quinolinium and 3-(phenylthio)quinolinium compounds: Synthesis and evaluation against opportunistic fungal pathogens” (Bioorg Med Chem, 2011) can be followed below.

The test system of data set [1] is Cryptococcus neoformans. In words: Antifungal activity against Cryptococcus neoformans ATCC 90113 by CLSI method. Type of data set: functional, organism-based.
The test system of data set [2] is Mus musculus. Nature of the data set: Toxicity in Cryptococcus neoformans ATCC 52657 infected mouse assessed as change in body weight at 20 mg/kg, ip qd for 5 days. In kind it is organism-based. Details: dose 20 mg/kg, route intraperitoneal. As to conditions: in vivo, 120 h.
Data set [3] deals with Mus musculus. In words: Toxicity in Cryptococcus neoformans ATCC 52657 infected mouse assessed as distension of cecum at 20 mg/kg, ip qd for 5 days. In kind it is organism-based, Caecum. Set-up: dose 20 mg/kg, route intraperitoneal. To be noted: in vivo, 120 h.
Data set [4] deals with Mus musculus. Nature of the data set: Toxicity in Cryptococcus neoformans ATCC 52657 infected mouse assessed as signs of discomfort at 10 to 20 mg/kg, ip qd for 5 days. In kind it is organism-based. Set-up: dose 10-20 mg/kg, route intraperitoneal. To be noted: in vivo, 120 h.
Data set [5] concerns Mus musculus. Nature of the data set: Toxicity in Cryptococcus neoformans ATCC 52657 infected mouse assessed as decrease in mobility at 10 to 20 mg/kg, ip qd for 5 days. Type of data set: organism-based. Set-up: dose 10-20 mg/kg, route intraperitoneal. As to conditions: in vivo, 120 h.
In data set [6] the test system is Mus musculus. In words: Toxicity in Cryptococcus neoformans ATCC 52657 infected mouse assessed as enlargement of liver with fusion of hepatic lobes at 20 mg/kg, ip qd for 5 days. In kind it is organism-based. Details: dose 20 mg/kg, route intraperitoneal. To be noted: in vivo, 120 h.
In the next data set the test system is Aspergillus fumigatus. In words: Antifungal activity against Aspergillus fumigatus ATCC 90906 by CLSI method. Type of data set: functional, organism-based.
In data set [7] the test system is Candida albicans. Nature of the data set: Antifungal activity against Candida albicans ATCC 90028 at 20 ug/ml by CLSI method. Type of data set: functional, organism-based.
Data set [8] concerns Mus musculus. In words: Toxicity in Cryptococcus neoformans ATCC 52657 infected mouse assessed as distension of duodenum at 20 mg/kg, ip qd for 5 days. Details: dose 20 mg/kg. To be noted: in vivo, other, 120 h. In kind it is organism-based.
Data set [9] has as its system Mus musculus. Nature of the data set: Toxicity in Cryptococcus neoformans ATCC 52657 infected mouse assessed as distension of cecum at 10 mg/kg, ip qd for 5 days. In kind it is organism-based, Caecum. Set-up: dose 10 mg/kg, route intraperitoneal. As to conditions: in vivo, 120 h.
Data set [10] relates to Mus musculus. Nature of the data set: Toxicity in Cryptococcus neoformans ATCC 52657 infected mouse assessed as signs of discomfort at 10 to 20 mg/kg, ip qd for 5 days after 2 hrs last post dose. In kind it is organism-based. Set-up: dose 10-20 mg/kg, route intraperitoneal. As to conditions: in vivo.
Data set [11] concerns Mus musculus. In words: Toxicity in Cryptococcus neoformans ATCC 52657 infected mouse assessed as pathological lesions at 10 mg/kg, ip qd for 5 days. Type of data set: organism-based. Details: dose 10 mg/kg, route intraperitoneal. As to conditions: in vivo, 120 h.
For data set [12], the system named is Mus musculus. In words: Toxicity in Cryptococcus neoformans ATCC 52657 infected mouse assessed as distension of duodenum at 10 mg/kg, ip qd for 5 days. In kind it is organism-based. Set-up: dose 10 mg/kg. As to conditions: in vivo, other, 120 h.
The subject of data set [13] is Mus musculus. In words: Toxicity in Cryptococcus neoformans ATCC 52657 infected mouse assessed as change in body weight at 10 mg/kg, ip qd for 5 days. In kind it is organism-based. Set-up: dose 10 mg/kg, route intraperitoneal. To be noted: in vivo, 120 h.
Data set [14] has as its system Mus musculus. In words: Toxicity in Cryptococcus neoformans ATCC 52657 infected mouse assessed as distension of jejunum at 20 mg/kg, ip qd for 5 days. Type of data set: organism-based. Set-up: dose 20 mg/kg, route intraperitoneal. To be noted: in vivo, 120 h.
In data set [15] the test system is Mus musculus. Nature of the data set: Toxicity in Cryptococcus neoformans ATCC 52657 infected mouse assessed as distension of jejunum at 10 mg/kg, ip qd for 5 days. Type of data set: organism-based. Details: dose 10 mg/kg, route intraperitoneal. As to conditions: in vivo, 120 h.
Data set [16] concerns Mus musculus. Nature of the data set: Toxicity in Cryptococcus neoformans ATCC 52657 infected mouse assessed as change in gross pathology of spleen at 10 to 20 mg/kg, ip qd for 5 days. In kind it is organism-based. Details: dose 10-20 mg/kg, route intraperitoneal. To be noted: in vivo, 120 h.
In a further data set the test system is Vero. Nature of the data set: Cytotoxicity against african green monkey Vero cells after 48 hrs by neutral red assay. Type of data set: cell-based. As to conditions: Chlorocebus sabaeus.
The test system of data set [17] is Mus musculus. In words: Toxicity in Cryptococcus neoformans ATCC 52657 infected mouse assessed as decrease in mobility at 10 to 20 mg/kg, ip qd for 5 days after 2 hrs last post dose. To be noted: in vivo. Set-up: dose 10-20 mg/kg, route intraperitoneal. In kind it is organism-based.
Data set [18] deals with Mus musculus. In words: Toxicity in Cryptococcus neoformans ATCC 52657 infected mouse assessed as change in gross pathology of kidney at 10 to 20 mg/kg, ip qd for 5 days. Set-up: dose 10-20 mg/kg, route intraperitoneal. As to conditions: in vivo, 120 h. In kind it is organism-based.
The test system of data set [19] is Cryptococcus neoformans. In words: Antifungal activity against Cryptococcus neoformans ATCC 52657-infected mouse assessed as reduction of CFU per gram of brain at 10 mg/kg, ip qd for 5 days relative to control. In kind it is functional. As to conditions: route intraperitoneal. Details: scale not given: the % may be the effect or the level left.
In data set [20] the test system is Cryptococcus neoformans. In words: Antifungal activity against Cryptococcus neoformans ATCC 52657-infected mouse assessed as reduction of CFU per gram of brain at 1 mg/kg, ip qd for 5 days relative to control. In kind it is functional. Set-up: scale not given: the % may be the effect or the level left. To be noted: route intraperitoneal.
The test system of data set [21] is Candida albicans. Nature of the data set: Antifungal activity against Candida albicans ATCC 90028 by CLSI method. To be noted: Candida albicans, ATCC 90028. Type of data set: functional, organism-based.
Data set [22] has as its system Candida albicans. Nature of the data set: Antifungal activity against Candida albicans B311 ATCC 32354-infected mouse assessed as reduction of CFU per gram of kidney at 1 mg/kg, ip qd for 3 days relative to control. In kind it is functional. Set-up: scale not given: the % may be the effect or the level left. As to conditions: route intraperitoneal.
In data set [23] the test system is Mus musculus. In words: Toxicity in Candida albicans B311 ATCC 32354-infected mouse assessed as gross pathological lesions at 1 to 10 mg/kg, ip qd for 3 days. Type of data set: organism-based. Set-up: dose 1-10 mg/kg, route intraperitoneal. To be noted: in vivo, 72 h.
For data set [24], the system named is Candida albicans. In words: Antifungal activity against Candida albicans B311 ATCC 32354-infected mouse assessed as reduction of CFU per gram of kidney at 10 mg/kg, ip qd for 3 days relative to control. To be noted: route intraperitoneal. In kind it is functional. Details: scale not given: the % may be the effect or the level left.
Data set [25] concerns Cryptococcus neoformans. In words: Antifungal activity against Cryptococcus neoformans ATCC 52657-infected mouse assessed as reduction of CFU per gram of brain at 1.2 mg/kg, ip qd for 5 days relative to control. To be noted: route intraperitoneal. Type of data set: functional. Details: scale not given: the % may be the effect or the level left.
Data set [26] concerns Cryptococcus neoformans. Nature of the data set: Antifungal activity against Cryptococcus neoformans ATCC 52657-infected mouse assessed as reduction of CFU per gram of brain at 5 mg/kg, ip qd for 5 days relative to control. Type of data set: functional. Set-up: scale not given: the % may be the effect or the level left. As to conditions: route intraperitoneal.
Data set [27] in a line: Toxicity in Candida albicans B311 ATCC 32354-infected ip dosed mouse administered qd for 3 days. Type of data set: organism-based. As to conditions: in vivo.
Data set [28] has as its system Candida albicans. Nature of the data set: Antifungal activity against Candida albicans B311 ATCC 32354-infected mouse assessed as reduction of CFU per gram of kidney at 5 mg/kg, ip qd for 3 days relative to control. In kind it is functional. Details: scale not given: the % may be the effect or the level left. As to conditions: route intraperitoneal.
Data set [29] concerns Mus musculus. In words: Toxicity in Candida albicans B311 ATCC 32354-infected mouse assessed as change in body weight at 1 to 10 mg/kg, ip qd for 3 days. Details: dose 1-10 mg/kg, route intraperitoneal. Type of data set: organism-based. To be noted: in vivo, 72 h.
The nature of data set [30]: Toxicity in Candida albicans B311 ATCC 32354-infected mouse assessed as white deposits of unknown origin in peritoneal cavity at 20 mg/kg, ip qd for 3 days. Type of data set: organism-based. Details: dose 20 mg/kg, route intraperitoneal. To be noted: in vivo, 72 h.
Data set [31] relates to Candida albicans. In words: Antifungal activity against Candida albicans B311 ATCC 32354-infected mouse assessed as reduction of CFU per gram of kidney at 1.2 mg/kg, ip qd for 3 days relative to control. In kind it is functional. As to conditions: route intraperitoneal. Details: scale not given: the % may be the effect or the level left.

SMILES strings stand for the structures. Calls of active or inactive are those of the source.

In the case of `C[n+]1c2c(Cl)cccc2cc2sc3ccccc3c21.O=S(=O)([O-])C(F)(F)F`, the 50% inhibitory concentration (IC50) (as a rule, the concentration at which inhibition is half-maximal) in the data set on Cryptococcus neoformans [1] is 4 µg/mL; in the data set with Aspergillus fumigatus it was 6 µg/mL; in the data set on Vero, > 10 µg/mL. In addition, the MIC in the data set with Cryptococcus neoformans [1] and in the data set with Aspergillus fumigatus was 10 µg/mL in each case. The Activity entry with Mus musculus [2], in the data set on Mus musculus [3], with Mus musculus [4], in the data set on Mus musculus [5], in the data set with Mus musculus [6] and with Mus musculus [8] was “Toxic” each time. The Activity result is “Toxic” in the data set on Mus musculus [9]; “Non-toxic” with Mus musculus [10]; “Non-toxic” in the data set on Mus musculus [11]; “Toxic” in the data set on Mus musculus [12]; “Non-toxic” with Mus musculus [13]; “Toxic” in the data set on Mus musculus [14]. Moreover, the Activity entry with Mus musculus [15] is “Toxic”; in the data set with Mus musculus [16], “Non-toxic”; in the data set on Mus musculus [17], “Non-toxic”; in the data set with Mus musculus [18] it was “Non-toxic”. In the data set on Candida albicans [7], the result was inactive.

For the molecule `COc1ccc2cc3sc4ccccc4c3[n+](C)c2c1.O=S(=O)([O-])C(F)(F)F`, the IC50 is 6 µg/mL in the data set on Cryptococcus neoformans [1], 1.5 µg/mL in the data set on Candida albicans [21], 0.4 µg/mL with Aspergillus fumigatus and > 10 µg/mL with Vero. In addition, the MIC (in general, the smallest concentration in the dilution series that meets the test's criterion for growth inhibition) in the data set on Cryptococcus neoformans [1] is > 20 µg/mL; in the data set with Candida albicans [21], 10 µg/mL; in the data set with Aspergillus fumigatus, 0.6 µg/mL. The Activity in the data set on Cryptococcus neoformans [19] is given as 10%; with Cryptococcus neoformans [20], 50%; in the data set on Candida albicans [22], 34%; in the data set on Mus musculus [23] it was “Non-toxic”; in the data set with Candida albicans [24] it was 86%; with Cryptococcus neoformans [25] it was 24%. In addition, the Activity is reported as 26% with Cryptococcus neoformans [26]; 26% in the data set with Candida albicans [28]; “Non-toxic” in the data set with Mus musculus [29]; “Toxic” in data set [30]; 99% in the data set on Candida albicans [31]. Moreover, the MTD at 72 h in data set [27] worked out at 10 mg/kg.
